{
  "source": "patent US20250340661A1",
  "about": "“ANTI CD40 ANTIBODY, ANTIGEN BINDING FRAGMENT AND MEDICAL USE THEREOF” (Jiangsu Hengrui Pharmaceuticals Co., Ltd., priority 2021, published 2025)",
  "key": {"[1]": {"tested_on": "human CD40 transgenic mice", "experiment": "Mouse T cell-dependent humoral immune response (TDAR) model", "format": "in vivo", "details": "0.3 mpk BIW ip (IgG1 control 1 mg/kg per Table 15); serum ELISA", "description": "On day 0 of the experiment, one of the mice in each group was subjected to blood collection followed by intraperitoneal injection. On day 1, each mouse was intraperitoneally injected with 50 μg of KLH (KLH:complete Freund's adjuvant (CFA)=1:1 emulsified immune complex) for immunization. On day 15 of the experiment, each mouse was intraperitoneally injected with 50 μg of KLH (KLH:incomplete Freund's adjuvant (IFA)=1:1 emulsified immune complex) for a second immunization. Each group was intraperitoneally injected twice a week, and blood samples of about 150 μL were collected from the orbital venous plexus on days 7, 14, 21, and 28. Whole blood was left to stand at room temperature for 1-4 h and centrifuged at 7000 rpm at 4° C. for 10 min to separate serum, and the serum was stored at −80° C. before use.\nMouse serum was separated weekly and assayed by ELISA for the anti-KLH specific IgG level."}, "[2]": {"experiment": "PK assay in human CD40 transgenic mice", "format": "in vivo, mouse", "details": "hCD40 transgenic mice, 10 mg/kg intraperitoneal, plasma", "excerpt": "The plate was washed three times with wash buffer."}},
  "data": [
    {"substance": "CFZ533: anti-CD40 antagonistic antibody (iscalimab), positive control; variable regions from U.S. Pat. No. 8,277,810B [reference compound]", "values": [
      {"measurement": "anti-KLH specific IgG level, Day 7", "setting": "[1]", "value": "0.04 ± 0.01"},
      {"measurement": "anti-KLH specific IgG level, Day 14", "setting": "[1]", "value": "30.9 ± 10.8"},
      {"measurement": "anti-KLH specific IgG level, Day 21", "setting": "[1]", "value": "845 ± 423"},
      {"measurement": "anti-KLH specific IgG level, Day 28", "setting": "[1]", "value": "3043 ± 1600"},
      {"measurement": "AUC(0-d 14)", "setting": "[2]", "value": "12655 (h)*(mg/L)"},
      {"measurement": "Cmax", "setting": "[2]", "value": 75.95, "unit": "mg/L"},
      {"measurement": "T½", "setting": "[2]", "value": 214.8, "unit": "h"}
    ]}
  ]
}
